Earlier results, collected in US20090069233A1, “Agonist Peptides of Basic Fibroblast Growth Factor (bFGF) and the Method of Reduction of Wrinkles on Skin, Darkening of Hair and Acceleration of Wound Healing” (priority 2005, published 2009).

Tests used:
[1] = test system: depigmented skin patches of Yucatan swine; conditions: bFGF by interdermal injection
[2] = test system: depigmented ear lobes of Guinea pigs; conditions: bFGF by interdermal injection
[3] = test system: wounds of diabetic mice; conditions: wound healing experiments
[4] = test system: artificial wound space; conditions: poly-vinyl alcohol sponge implant, histological and biochemical analysis
[5] = test system: melanocytes obtained from the uninvolved areas of untreated vitiligo subjects; conditions: in vitro cell cultures

Row | Substance | repigmentation of depigmented skin patches [1] | repigmentation of depigmented ear lobes [2] | side effects [3] | neo vascularisation, number of fibroblasts and deposition of collagen in the wound space [4] | correction of abnormalities of melanocytes [5]
1 | epidermal growth factor: other growth factor used as specificity control in repigmentation animal models (NSDSECPLSHDGYCLHDGVCMYIEALDKYACNCVVGYIGERCQYRDLKWWELR; UniProt P01133 971-1023, looked up) [reference compound] | did not have any effect | did not have any effect |  |  | 
2 | bFGF: Basic fibroblast growth factor, a potent mitogen for melanocytes, keratinocytes and fibroblasts | found effect | found effect | no side effects | increase neo vasculatisation the number of fibroblasts and the deposition of collagen in the wound space | corrects all the abnormalities of melanocytes
